Assay results reported in patent US8058270B2, “Dihydropteridinones for the treatment of cancer diseases” (Boehringer Ingelheim International GmbH, priority 2004, dated 2011).

Columns and labels:
Test in all cases: Alamar Blue cytotoxicity assay
Type in all cases: cell-based
THP-1 = conditions: Homo sapiens; THP-1 (Leukemia), 72 h
Source text: (§1) Alamar Blue™ Cytotoxicity Assays
(§2) The Alamar Blue™ assay is designed to measure quantitatively the proliferation of cells by incorporating a fluorometric/colorimetric growth indicator based on the detection of metabolic activity.
(§3) Cell culture: The various human tumor cell lines can be purchased from American Type Culture Collection (ATCC) or the German Collection of Microorganisms and Cell Cultures (DSMZ) and cultivated in 75 to 175 cm^2 tissue culture flasks in the medium indicated by the supplier. The cells are maintained at 37° C. and 5% CO2 in a humidified atmosphere, with an appropriate split ratio. Logarithmically growing cells are used for the assays.
(§4) Assay conditions: On day one of the experiment 1000-4000 cells (in 100 μl medium) are seeded into each well of a sterile 96-well plate. The number of cells used is dependent on the growth rate and size of the cells. Eight wells on each plate are left free to accommodate for controls (4 wells for medium plus reduced AlamarBlue™, and 4 wells for medium plus oxidized AlamarBlue™). The plates are kept in the incubator overnight. On day two of the experiment serial dilutions of the inhibitor are prepared in medium containing 0.1% DMSO. Typical concentrations used are 10, 3, 1, 0.3, 0.1, 0.03, 0.01, 0.003 and 0.001 μM. 100 μl of the dilution (2× concentrate) is added to each well to yield a final volume of 200 μl per well. As controls plain medium and medium containing 0.1% DMSO are added to the designated wells. All data points are done in quadruplicates. The cells are then incubated for 72 h. After this incubation period 20 μl of AlamarBlue™ is added to each well. As a control, 20 μl of reduced AlamarBlue™ (AlamarBlue™ autoclaved for 30 min) is added to 4 wells without cells, and 20 μl of AlamarBlue™ is added to the remaining 4 wells without cells. After 4-5 h of incubation, the plates are measured in a fluorescence spectrophotometer (excitation 530 nm, emission 590 nm, slits 15, integrate time 0.1).
(§5) Data analysis: For calculation the mean value from the quadruplicates is taken and the background is subtracted. The 0.1% DMSO value (the mean obtained from 8 wells with cells in medium with 0.1% DMSO but no compound) is taken as 100% control. The data is fitted by iterative calculations using a sigmoidal curve analysis program (Graph Pad Prism version 3.03) with variable Hill slope.

BxPC-3 = conditions: Homo sapiens; BxPC-3 (Pancreas), 72 h
Source text: as §1, §2, §3, §4, §5

HCT116 = conditions: Homo sapiens, HCT-116; HCT116 (Colon), 72 h
Source text: as §1, §2, §3, §4, §5

HeLa S3 = conditions: Homo sapiens; HeLa S3 (Cervix), 72 h
Source text: as §1, §2, §3, §4, §5

PC-3 = conditions: Homo sapiens; PC-3 (Prostate), 72 h
Source text: as §1, §2, §3, §4, §5

BRO = conditions: Homo sapiens; BRO (Melanoma), 72 h
Source text: as §1, §2, §3, §4, §5

Raji = conditions: Homo sapiens; Raji (Lymphoma), 72 h
Source text: as §1, §2, §3, §4, §5

HT29 = conditions: Homo sapiens, HT-29; HT29 (Colon), 72 h
Source text: as §1, §2, §3, §4, §5

MES-SA = conditions: Homo sapiens; MES-SA (Uterus), 72 h
Source text: as §1, §2, §3, §4, §5

FaDu = conditions: Homo sapiens; FaDu (Head and Neck), 72 h
Source text: as §1, §2, §3, §4, §5

DU145 = conditions: Homo sapiens, DU-145; DU145 (Prostate), 72 h
Source text: as §1, §2, §3, §4, §5

MDA-MB-435S = conditions: Homo sapiens; MDA-MB-435S (Breast), 72 h
Source text: as §1, §2, §3, §4, §5

A431 = conditions: Homo sapiens, A-431; A431 (Vulva), 72 h
Source text: as §1, §2, §3, §4, §5

NCI-H460 = conditions: Homo sapiens; NCI-H460 (Lung), 72 h
Source text: as §1, §2, §3, §4, §5

GRANTA-519 = conditions: Homo sapiens; GRANTA-519 (Lymphoma), 72 h
Source text: as §1, §2, §3, §4, §5

HepG2 = conditions: Homo sapiens; HepG2 (Liver), 72 h
Source text: as §1, §2, §3, §4, §5

A549 = conditions: Homo sapiens; A549 (Lung), 72 h
Source text: as §1, §2, §3, §4, §5

NCI-N87 = conditions: Homo sapiens; NCI-N87 (Stomach), 72 h
Source text: as §1, §2, §3, §4, §5

SK-UT-1B = conditions: Homo sapiens, Skut1B; SK-UT-1B (Uterus), 72 h
Source text: as §1, §2, §3, §4, §5

Mia CaPa-2 = conditions: Homo sapiens; Mia CaPa-2 (Pancreas), 72 h
Source text: as §1, §2, §3, §4, §5

NCI-H520 = conditions: Homo sapiens; NCI-H520 (Lung), 72 h
Source text: as §1, §2, §3, §4, §5

H4 = conditions: Homo sapiens; H4 (Brain), 72 h
Source text: as §1, §2, §3, §4, §5

Saos-2 = conditions: Homo sapiens; Saos-2 (Bone), 72 h
Source text: as §1, §2, §3, §4, §5

Colo 205 = conditions: Homo sapiens; Colo 205 (Colon), 72 h
Source text: as §1, §2, §3, §4, §5

MCF7 = conditions: Homo sapiens; MCF7 (Breast), 72 h
Source text: as §1, §2, §3, §4, §5

HL-60 = conditions: Homo sapiens; HL-60 (Leukemia), 72 h
Source text: as §1, §2, §3, §4, §5

SKOV-3 = conditions: Homo sapiens, SK-OV-3; SKOV-3 (Ovary), 72 h
Source text: as §1, §2, §3, §4, §5

With `CC[C@@H]1C(=O)N(C)c2cnc(Nc3ccc(C(=O)NC4CCN(C)CC4)cc3OC)nc2N1C1CCCC1` [4-[[(7R)-8-cyclopentyl-7-ethyl-5,6,7,8-tetrahydro-5-methyl-6-oxo-2-pteridinyl]amino]-3-methoxy-N-(1-methyl-4-piperidinyl)-benzamide] the EC50 (THP-1) was 9 nM, the EC50 (BxPC-3) was 25 nM and the EC50 (HCT116) was 9 nM. It also gave an EC50 (HeLa S3) of 12 nM, an EC50 (PC-3) of 7 nM and an EC50 (BRO) of 4 nM. It also gave an EC50 (Raji) of 14 nM, an EC50 (HT29) of 4 nM and an EC50 (MES-SA) of 10 nM. For the same compound, the EC50 (FaDu) was 6 nM, the EC50 (DU145) was 6 nM and the EC50 (MDA-MB-435S) was 17 nM. For the same compound, the EC50 (A431) was 2 nM, the EC50 (NCI-H460) was 14 nM and the EC50 (GRANTA-519) was 5 nM. For the same compound, the EC50 (HepG2) was 10 nM, the EC50 (A549) was 6 nM and the EC50 (NCI-N87) was 14 nM. It also gave an EC50 (SK-UT-1B) of 8 nM, an EC50 (Mia CaPa-2) of 7 nM and an EC50 (NCI-H520) of 10 nM. The EC50 (H4) was 22 nM, the EC50 (Saos-2) was 8 nM and the EC50 (Colo 205) was 9 nM. For the same compound, the EC50 (MCF7) was 9 nM, the EC50 (HL-60) was 14 nM and the EC50 (SKOV-3) was 4 nM.
